# The source made the active and inactive calls. The rule behind the calls is not given here.
# System: CCRIS mutagenicity, Ames/micronucleus/aberration tests
# Test: CCRIS mutagenicity studies
# [1] = Test System: MOUSE LYMPHOMA, Strain/Indicator: L5178Y (TK+/TK-), Metabolic Activation: NONE, Method: SUSPENSION/PLATE
smiles,measurement,setting,value
c1ccc(Nc2ccc3ccccc3c2)cc1,mutagenic call,"End Point: IN VITRO CHROMOSOMAL ABERRATIONS, Test System: CHINESE HAMSTER LUNG CELLS (CHL), Metabolic Activation: NONE",inactive; negative
same,mutagenic call,"End Point: IN VITRO CHROMOSOMAL ABERRATIONS, Test System: CHINESE HAMSTER LUNG CELLS (CHL), Metabolic Activation: RAT, LIVER, S-9, KC-400",active; positive (structural changes)
same,mutagenic call,"End Point: IN VITRO CHROMOSOMAL ABERRATIONS, Test System: CHINESE HAMSTER OVARY CELLS (CHO), Metabolic Activation: NONE",inactive; negative
same,mutagenic call,"End Point: IN VITRO CHROMOSOMAL ABERRATIONS, Test System: CHINESE HAMSTER OVARY CELLS (CHO), Metabolic Activation: RAT, LIVER, S-9, AROCLOR 1254",inactive; negative
same,mutagenic call,"End Point: IN VITRO CHROMOSOMAL ABERRATIONS, Test System: CHO CELLS, Metabolic Activation: NONE",inactive; negative
same,mutagenic call,"End Point: IN VITRO CHROMOSOMAL ABERRATIONS, Test System: CHO CELLS, Metabolic Activation: RAT, LIVER, S-9, AROCLOR 1254",inactive; negative
same,mutagenic call,"Test System: AMES SALMONELLA TYPHIMURIUM, Strain/Indicator: TA97, Metabolic Activation: HAMSTER, LIVER, S-9, AROCLOR 1254 (10%), Method: PREINCUBATION",inactive; negative
same,mutagenic call,"Test System: AMES SALMONELLA TYPHIMURIUM, Strain/Indicator: TA97, Metabolic Activation: HAMSTER, LIVER, S-9, AROCLOR 1254 (30%), Method: PREINCUBATION",inactive; negative
same,mutagenic call,"Test System: AMES SALMONELLA TYPHIMURIUM, Strain/Indicator: TA97, Metabolic Activation: HAMSTER, LIVER, S-9, AROCLOR 1254, Method: PREINCUBATION",inactive; negative
same,mutagenic call,"Test System: AMES SALMONELLA TYPHIMURIUM, Strain/Indicator: TA97, Metabolic Activation: NONE, Method: PREINCUBATION",inactive; negative
same,mutagenic call,"Test System: AMES SALMONELLA TYPHIMURIUM, Strain/Indicator: TA97, Metabolic Activation: RAT, LIVER, S-9, AROCLOR 1254 (10%), Method: PREINCUBATION",inactive; negative
same,mutagenic call,"Test System: AMES SALMONELLA TYPHIMURIUM, Strain/Indicator: TA97, Metabolic Activation: RAT, LIVER, S-9, AROCLOR 1254 (30%), Method: PREINCUBATION",inactive; negative
same,mutagenic call,"Test System: AMES SALMONELLA TYPHIMURIUM, Strain/Indicator: TA97, Metabolic Activation: RAT, LIVER, S-9, AROCLOR 1254, Method: PREINCUBATION",inactive; negative
same,mutagenic call,"Test System: AMES SALMONELLA TYPHIMURIUM, Strain/Indicator: TA98, Metabolic Activation: HAMSTER, LIVER, S-9, AROCLOR 1254 (10%), Method: PREINCUBATION",inactive; negative
same,mutagenic call,"Test System: AMES SALMONELLA TYPHIMURIUM, Strain/Indicator: TA98, Metabolic Activation: HAMSTER, LIVER, S-9, AROCLOR 1254 (30%), Method: PREINCUBATION",inactive; negative
same,mutagenic call,"Test System: AMES SALMONELLA TYPHIMURIUM, Strain/Indicator: TA98, Metabolic Activation: HAMSTER, LIVER, S-9, AROCLOR 1254, Method: PREINCUBATION",inactive; negative
same,mutagenic call,"Test System: AMES SALMONELLA TYPHIMURIUM, Strain/Indicator: TA98, Metabolic Activation: NONE, Method: PREINCUBATION",inactive; negative
same,mutagenic call,"Test System: AMES SALMONELLA TYPHIMURIUM, Strain/Indicator: TA98, Metabolic Activation: RAT, LIVER, S-9, AROCLOR 1254 (10%), Method: PREINCUBATION",inactive; negative
same,mutagenic call,"Test System: AMES SALMONELLA TYPHIMURIUM, Strain/Indicator: TA98, Metabolic Activation: RAT, LIVER, S-9, AROCLOR 1254 (30%), Method: PREINCUBATION",inactive; negative
same,mutagenic call,"Test System: AMES SALMONELLA TYPHIMURIUM, Strain/Indicator: TA98, Metabolic Activation: RAT, LIVER, S-9, AROCLOR 1254, Method: PREINCUBATION",inactive; negative
same,mutagenic call,"Test System: AMES SALMONELLA TYPHIMURIUM, Strain/Indicator: TA100, Metabolic Activation: HAMSTER, LIVER, S-9, AROCLOR 1254 (10%), Method: PREINCUBATION",inactive; negative
same,mutagenic call,"Test System: AMES SALMONELLA TYPHIMURIUM, Strain/Indicator: TA100, Metabolic Activation: HAMSTER, LIVER, S-9, AROCLOR 1254 (30%), Method: PREINCUBATION",inactive; negative
same,mutagenic call,"Test System: AMES SALMONELLA TYPHIMURIUM, Strain/Indicator: TA100, Metabolic Activation: HAMSTER, LIVER, S-9, AROCLOR 1254, Method: PREINCUBATION",inactive; negative
same,mutagenic call,"Test System: AMES SALMONELLA TYPHIMURIUM, Strain/Indicator: TA100, Metabolic Activation: NONE, Method: PREINCUBATION",inactive; negative
same,mutagenic call,"Test System: AMES SALMONELLA TYPHIMURIUM, Strain/Indicator: TA100, Metabolic Activation: RAT, LIVER, S-9, AROCLOR 1254 (10%), Method: PREINCUBATION",inactive; negative
same,mutagenic call,"Test System: AMES SALMONELLA TYPHIMURIUM, Strain/Indicator: TA100, Metabolic Activation: RAT, LIVER, S-9, AROCLOR 1254 (30%), Method: PREINCUBATION",inactive; negative
same,mutagenic call,"Test System: AMES SALMONELLA TYPHIMURIUM, Strain/Indicator: TA100, Metabolic Activation: RAT, LIVER, S-9, AROCLOR 1254, Method: PREINCUBATION",inactive; negative
same,mutagenic call,"Test System: AMES SALMONELLA TYPHIMURIUM, Strain/Indicator: TA1535, Metabolic Activation: HAMSTER, LIVER, S-9, AROCLOR 1254 (10%), Method: PREINCUBATION",inactive; negative
same,mutagenic call,"Test System: AMES SALMONELLA TYPHIMURIUM, Strain/Indicator: TA1535, Metabolic Activation: HAMSTER, LIVER, S-9, AROCLOR 1254 (30%), Method: PREINCUBATION",inactive; negative
same,mutagenic call,"Test System: AMES SALMONELLA TYPHIMURIUM, Strain/Indicator: TA1535, Metabolic Activation: HAMSTER, LIVER, S-9, AROCLOR 1254, Method: PREINCUBATION",inactive; negative
same,mutagenic call,"Test System: AMES SALMONELLA TYPHIMURIUM, Strain/Indicator: TA1535, Metabolic Activation: NONE, Method: PREINCUBATION",inactive; negative
same,mutagenic call,"Test System: AMES SALMONELLA TYPHIMURIUM, Strain/Indicator: TA1535, Metabolic Activation: RAT, LIVER, S-9, AROCLOR 1254 (10%), Method: PREINCUBATION",inactive; negative
same,mutagenic call,"Test System: AMES SALMONELLA TYPHIMURIUM, Strain/Indicator: TA1535, Metabolic Activation: RAT, LIVER, S-9, AROCLOR 1254 (30%), Method: PREINCUBATION",inactive; negative
same,mutagenic call,"Test System: AMES SALMONELLA TYPHIMURIUM, Strain/Indicator: TA1535, Metabolic Activation: RAT, LIVER, S-9, AROCLOR 1254, Method: PREINCUBATION",inactive; negative
same,mutagenic call,[1],inactive; negative
same,mutagenic call,"Test System: MOUSE LYMPHOMA, Strain/Indicator: L5178Y (TK+/TK-), Metabolic Activation: RAT, LIVER, S-9, AROCLOR 1254, Method: SUSPENSION/PLATE",active; positive
O=C1c2c(O)ccc(O)c2C(=O)c2c(NCCO)ccc(NCCO)c21,mutagenic call,[1],active; positive
